Assay results: ChEMBL document CHEMBL5385889, “Design, synthesis and biological evaluations of quinolone amides against African trypanosomiasis with improved solubility” (Eur J Med Chem, 2023)
In brackets after ≈: the same amount, converted by molar mass.

How the values were obtained:
[1] = Thermodynamic aqueous solubility of compound in PBS buffer at pH 7.4 at 37 degreeC measured after 24 hrs by HPLC analysis; assay type: physicochemical; settings: read-out: Therm_solubility
[2] = Octanol/water partition coefficient, log P of the compound by LC-MS analysis; assay type: physicochemical
[3] = Selectivity index, ratio of CC50 for cytotoxicity against mouse J774.1 cells assessed as reduction in cell viability to IC50 for antitrypanosomal activity against wild type Trypanosoma brucei M1.2 Lister 427 trypomastigotes form assessed as parasite growth inhibition; assay type: toxicity, cell-based; settings: read-out: Ratio CC50/IC50
Trypanosoma brucei = assay: Antitrypanosomal activity against wild type Trypanosoma brucei M1.2 Lister 427 trypomastigotes form assessed as parasite growth inhibition incubated for 48 hrs; assay type: functional, organism-based; settings: M1.2 Lister 427, 48 h
J774.1 = assay: Cytotoxicity against mouse J774.1 cells assessed as reduction in cell viability incubated for 24 hrs by alamar blue staining based analysis; assay type: functional

`CCCCn1cc(C(=O)NCc2ccccc2)c(=O)c2ccc(N3CCC(OCCOCCOCCOC)CC3)cc21` gave a solubility thermodynamic at 24 h [1] of 86.9 µg/mL (≈ 150 µM), a logP ([2]; read-out: logP) of 4.05 and a selectivity ratio [3] of 48. For the same compound, the IC50 (Trypanosoma brucei) was 1.01 µM and the CC50 (J774.1) was 48.5 µM.

With `CCCCn1cc(C(=O)NCc2ccccc2)c(=O)c2cc(F)c(N3CCOCC3)c(Br)c21` the solubility thermodynamic at 24 h [1] was < 0.1 µg/mL, the logP ([2]; read-out: logP) was 5.05 and the selectivity ratio [3] was > 106. For the same compound, the IC50 (Trypanosoma brucei) was 0.47 µM and the CC50 (J774.1) was > 50 µM.

In the case of `CCCCn1cc(C(=O)NC2(c3ccccc3)CCOCC2)c(=O)c2ccc(N3CCOCC3)cc21`, the solubility thermodynamic at 24 h [1] is reported as 1.03 µg/mL (≈ 2.1 µM), the logP ([2]; read-out: logP) is reported as 3.6 and the IC50 (Trypanosoma brucei) is reported as > 20 µM. For the same compound, the CC50 (J774.1) was > 50 µM.

In the case of `O=C(NCc1ccccc1)c1cn(CC2CCCCC2)c2cc(N3CCOCC3)ccc2c1=O`, the solubility thermodynamic at 24 h [1] is reported as < 0.1 µg/mL, the logP ([2]; read-out: logP) is reported as 4.59 and the selectivity ratio [3] is reported as > 58. For the same compound, the IC50 (Trypanosoma brucei) was 0.86 µM and the CC50 (J774.1) was > 50 µM.

For `CCCCn1cc(C(=O)NCc2cccc(CN)c2)c(=O)c2cc(F)c(N3CCOCC3)cc21`, the solubility thermodynamic at 24 h [1] was > 1000 µg/mL, the logP ([2]; read-out: logP) was 3.83 and the selectivity ratio [3] was 80. The IC50 (Trypanosoma brucei) was 0.52 µM and the CC50 (J774.1) was 41.8 µM.

In the case of `CCCCn1cc(C(=O)NCc2ccccc2)c(=O)c2ccc(OCCOCCOCCOC)cc21`, the solubility thermodynamic at 24 h [1] is reported as 93 µg/mL (≈ 187 µM), the logP ([2]; read-out: logP) is reported as 3.57 and the selectivity ratio [3] is reported as > 45. The IC50 (Trypanosoma brucei) was 1.12 µM and the CC50 (J774.1) was > 50 µM.

In the case of `CCCCn1cc(C(=O)NCc2ccc(C#N)cc2)c(=O)c2c(F)cc(N3CCOCC3)cc21`, the solubility thermodynamic at 24 h [1] is reported as 0.88 µg/mL (≈ 1.9 µM), the logP ([2]; read-out: logP) is reported as 2.9 and the selectivity ratio [3] is reported as > 500. For the same compound, the IC50 (Trypanosoma brucei) was 0.1 µM and the CC50 (J774.1) was > 50 µM.

`O=C(NCc1ccccc1)c1cn(CC2CCC2)c2cc(N3CCOCC3)ccc2c1=O` gave a solubility thermodynamic at 24 h [1] of 1.66 µg/mL (≈ 3.85 µM), a logP ([2]; read-out: logP) of 3.68 and a selectivity ratio [3] of 37. The IC50 (Trypanosoma brucei) was 0.8 µM and the CC50 (J774.1) was 29.9 µM.

For `CCCCn1cc(C(=O)NC2(c3ccccc3)CCCC2)c(=O)c2cc(F)c(N3CCOCC3)cc21`, the solubility thermodynamic at 24 h [1] was < 0.1 µg/mL, the logP ([2]; read-out: logP) was 5.24 and the selectivity ratio [3] was 26. The IC50 (Trypanosoma brucei) was 1.83 µM and the CC50 (J774.1) was 47.4 µM.

Compound `CCCCn1cc(C(=O)NCc2ccccc2)c(=O)c2cc(F)c(N3CCOCC3)cc21` has a logP [2] of 4.1, a selectivity ratio [3] of 1210 and an IC50 (Trypanosoma brucei) of 0.047 µM. For the same compound, the CC50 (J774.1) was 57 µM.

For `CCCCn1cc(C(=O)NCc2cccc(C#N)c2)c(=O)c2c(F)cc(N3CCOCC3)cc21`, the solubility thermodynamic at 24 h [1] was 0.24 µg/mL (≈ 0.519 µM), the logP ([2]; read-out: logP) was 2.98 and the selectivity ratio [3] was > 2270. For the same compound, the IC50 (Trypanosoma brucei) was 0.022 µM and the CC50 (J774.1) was > 50 µM.

In the case of `CCCCn1cc(C(=O)NC2(c3ccccc3)CCS(=O)(=O)CC2)c(=O)c2ccc(N3CCOCC3)cc21`, the solubility thermodynamic at 24 h [1] is reported as 3.35 µg/mL (≈ 6.23 µM), the logP ([2]; read-out: logP) is reported as 2.83 and the IC50 (Trypanosoma brucei) is reported as > 20 µM. For the same compound, the CC50 (J774.1) was > 50 µM.

For `CCCCn1cc(C(=O)NCc2ccccc2)c(=O)c2ccc(N3CCOCC3)cc21`, the selectivity ratio [3] was > 435, the IC50 (Trypanosoma brucei) was 0.23 µM and the CC50 (J774.1) was > 100 µM.

For `CCCCn1cc(C(=O)NC2(c3ccccc3)CCCCC2)c(=O)c2cc(F)c(N3CCOCC3)cc21`, the solubility thermodynamic at 24 h [1] was < 0.1 µg/mL, the logP ([2]; read-out: logP) was 5.64 and the selectivity ratio [3] was 7. For the same compound, the IC50 (Trypanosoma brucei) was 4.72 µM and the CC50 (J774.1) was 31 µM.

In the case of `CCCCn1cc(C(=O)NCc2ccccc2)c(=O)c2c(F)cc(N3CCOCC3)cc21`, the logP ([2]; read-out: logP) is reported as 3.38, the selectivity ratio [3] is reported as > 2000 and the IC50 (Trypanosoma brucei) is reported as 0.05 µM. The CC50 (J774.1) was > 100 µM.

With `CCCCn1cc(C(=O)NC2(c3ccccc3)CC2)c(=O)c2c(F)cc(N3CCOCC3)cc21` the solubility thermodynamic at 24 h [1] was < 0.1 µg/mL, the logP ([2]; read-out: logP) was 3.54 and the selectivity ratio [3] was > 278. The IC50 (Trypanosoma brucei) was 0.18 µM and the CC50 (J774.1) was > 50 µM.

In the case of `CCCCn1cc(C(=O)NC2(c3ccccc3)CCCCC2)c(=O)c2ccc(N3CCOCC3)cc21`, the solubility thermodynamic at 24 h [1] is reported as < 0.1 µg/mL, the logP ([2]; read-out: logP) is reported as 4.94 and the selectivity ratio [3] is reported as 9. It also gave an IC50 (Trypanosoma brucei) of 4.18 µM and a CC50 (J774.1) of 37 µM.

In the case of `CCCCN1CC(C)(C(=O)NCc2ccccc2)C(=O)c2ccc(N3CCOCC3)cc21` (centres undefined), the solubility thermodynamic at 24 h [1] is reported as 10.4 µg/mL (≈ 23.9 µM), the logP ([2]; read-out: logP) is reported as 3.04 and the selectivity ratio [3] is reported as > 13. For the same compound, the IC50 (Trypanosoma brucei) was 3.74 µM and the CC50 (J774.1) was > 50 µM.

For `CCCCn1cc(C(=O)NCc2cccc(CN)c2)c(=O)c2ccc(N3CCOCC3)cc21`, the solubility thermodynamic at 24 h [1] was > 1000 µg/mL, the logP ([2]; read-out: logP) was 3.31 and the selectivity ratio [3] was > 46. The IC50 (Trypanosoma brucei) was 1.08 µM and the CC50 (J774.1) was > 50 µM.

In the case of `CCCCn1cc(C(=O)NCc2ccc(CN)cc2)c(=O)c2c(F)cc(N3CCOCC3)cc21`, the solubility thermodynamic at 24 h [1] is reported as > 1000 µg/mL, the logP ([2]; read-out: logP) is reported as 2.72 and the selectivity ratio [3] is reported as > 200. For the same compound, the IC50 (Trypanosoma brucei) was 0.25 µM and the CC50 (J774.1) was > 50 µM.

In the case of `CCCCn1cc(C(=O)NCc2ccccc2)c(=O)c2cc(OCC)c(N3CCOCC3)c(OCC)c21`, the solubility thermodynamic at 24 h [1] is reported as < 0.1 µg/mL, the logP ([2]; read-out: logP) is reported as 5.51 and the selectivity ratio [3] is reported as 17. The IC50 (Trypanosoma brucei) was 1.93 µM and the CC50 (J774.1) was 33.2 µM.

In the case of `CCCCn1cc(C(=O)NC2(c3ccccc3)CC2)c(=O)c2cc(F)c(N3CCOCC3)c(F)c21`, the solubility thermodynamic at 24 h [1] is reported as 0.23 µg/mL (≈ 0.478 µM), the logP ([2]; read-out: logP) is reported as 4.57 and the selectivity ratio [3] is reported as > 333. For the same compound, the IC50 (Trypanosoma brucei) was 0.06 µM and the CC50 (J774.1) was > 20 µM.

For `CCCCn1cc(C(=O)NC2(c3ccccc3)CCCCC2)c(=O)c2c(F)cc(N3CCOCC3)cc21`, the solubility thermodynamic at 24 h [1] was < 0.1 µg/mL, the logP ([2]; read-out: logP) was 4.97 and the selectivity ratio [3] was > 12. For the same compound, the IC50 (Trypanosoma brucei) was 4.22 µM and the CC50 (J774.1) was > 50 µM.

For `CCCCn1cc(C(=O)NCc2ccc(CN)cc2)c(=O)c2cc(F)c(N3CCOCC3)cc21`, the solubility thermodynamic at 24 h [1] was > 1000 µg/mL, the logP ([2]; read-out: logP) was 3.8 and the selectivity ratio [3] was 164. The IC50 (Trypanosoma brucei) was 0.3 µM and the CC50 (J774.1) was 49.2 µM.

With `CCCCn1cc(C(=O)NC2(c3ccccc3)CC2)c(=O)c2ccc(N3CCOCC3)cc21` the solubility thermodynamic at 24 h [1] was < 0.1 µg/mL, the logP ([2]; read-out: logP) was 3.76 and the selectivity ratio [3] was > 69. The IC50 (Trypanosoma brucei) was 0.72 µM and the CC50 (J774.1) was > 50 µM.

`O=C(NCc1ccccc1)c1cn(C23CC(C2)C3)c2cc(N3CCOCC3)ccc2c1=O` showed a solubility thermodynamic at 24 h [1] of 4.06 µg/mL (≈ 9.45 µM), a logP ([2]; read-out: logP) of 4.57 and a selectivity ratio [3] of 373. The IC50 (Trypanosoma brucei) was 0.13 µM and the CC50 (J774.1) was 48.4 µM.

For `O=C(NCc1ccccc1)c1cn(CC2CC2)c2cc(N3CCOCC3)ccc2c1=O`, the solubility thermodynamic at 24 h [1] was 5.81 µg/mL (≈ 13.9 µM), the logP ([2]; read-out: logP) was 3.24 and the selectivity ratio [3] was > 91. The IC50 (Trypanosoma brucei) was 0.55 µM and the CC50 (J774.1) was > 50 µM.

In the case of `CCCCn1cc(C(=O)NCc2ccccc2)c(=O)c2cc(F)c(N3CCOCC3)c(Cl)c21`, the solubility thermodynamic at 24 h [1] is reported as < 0.1 µg/mL, the logP ([2]; read-out: logP) is reported as 5.01 and the selectivity ratio [3] is reported as > 278. For the same compound, the IC50 (Trypanosoma brucei) was 0.18 µM and the CC50 (J774.1) was > 50 µM.

For `CCCCn1cc(C(=O)NC2(c3ccccc3)CCCC2)c(=O)c2ccc(N3CCOCC3)cc21`, the solubility thermodynamic at 24 h [1] was < 0.1 µg/mL, the logP ([2]; read-out: logP) was 4.57 and the selectivity ratio [3] was 8. For the same compound, the IC50 (Trypanosoma brucei) was 4.4 µM and the CC50 (J774.1) was 34.1 µM.

For `CCCCn1cc(C(=O)NCc2ccccc2)c(=O)c2ccc(NCCOCCOCCOC)cc21`, the solubility thermodynamic at 24 h [1] was 41 µg/mL (≈ 82.7 µM), the logP ([2]; read-out: logP) was 3.38 and the selectivity ratio [3] was > 43. For the same compound, the IC50 (Trypanosoma brucei) was 1.15 µM and the CC50 (J774.1) was > 50 µM.

With `CCCCn1cc(C(=O)NCc2ccccc2)c(=O)c2ccc(N3CCCN(C)CC3)cc21` the solubility thermodynamic at 24 h [1] was 20.9 µg/mL (≈ 46.8 µM), the logP ([2]; read-out: logP) was 4.51 and the selectivity ratio [3] was 5. It also gave an IC50 (Trypanosoma brucei) of 2.97 µM and a CC50 (J774.1) of 14.2 µM.

For `CCCCn1cc(C(=O)NC2(c3ccccc3)CC2)c(=O)c2cc(F)c(N3CCOCC3)cc21`, the solubility thermodynamic at 24 h [1] was < 0.1 µg/mL, the logP ([2]; read-out: logP) was 4.46 and the selectivity ratio [3] was > 333. For the same compound, the IC50 (Trypanosoma brucei) was 0.15 µM and the CC50 (J774.1) was > 50 µM.

With `CCCCn1cc(C(=O)NCc2ccc(CN)cc2)c(=O)c2ccc(N3CCOCC3)cc21` the solubility thermodynamic at 24 h [1] was > 1000 µg/mL, the logP ([2]; read-out: logP) was 3.24 and the selectivity ratio [3] was > 32. For the same compound, the IC50 (Trypanosoma brucei) was 1.55 µM and the CC50 (J774.1) was > 50 µM.

For `CCCCn1cc(C(=O)NC23CC(C2)C3)c(=O)c2ccc(N3CCOCC3)cc21`, the solubility thermodynamic at 24 h [1] was 3.02 µg/mL (≈ 7.64 µM), the logP ([2]; read-out: logP) was 3.74 and the selectivity ratio [3] was > 13. The IC50 (Trypanosoma brucei) was 3.72 µM and the CC50 (J774.1) was > 50 µM.
